Experimental data taken from patent US20230390315A1, “COMPOSITIONS AND METHODS FOR TREATING ISCHEMIC CONDITIONS” (The Regents of the University of California, priority 2020, published 2023).

Tests used:
[1] = system: bovine choroidal microvascular endothelial cells (BCEC); experiment: BCEC proliferation assay; assay type: cell-based
Experimental: Proliferation assays with BCECs and BRECs were performed. Log-phase growing BCECs or BRECs (passage <10) were trypsinized, re-suspended and seeded in 96-well plates (no coating) in low-glucose DMEM supplemented with 10% bovine calf serum, 2 mM glutamine, and antibiotics (growth medium), at a density of 1200-1500 cells per well in 200 μl volume. All reagents were added at the indicated final concentrations. […] Fluorescence was measured at 530 nm excitation wavelength and 590 nm emission wavelength. The experiments were repeated at least three times. […] On each 96-well plate, untreated and VEGF-treated (10/ng/ml) wells were included to monitor plate-to-plate variations. 20% methanol or 0.05% DMSO served as negative controls. 0.05% DMSO served as negative controls when Cas was tested in these cells. Human […] and human adult […] were split into Gelatin-coated 96 wells (2000 cells per well) in low glucose DMEM containing 10% FBS. 1200 cells/well was set up for proliferation assay in low glucose media containing FBS. […] HUVEC (p7-10) were grown on gelatin-coated plate until it reached 70-80% confluency. On the day of the assay, cells were dissociated with 0.05% trypsin, which was neutralized with 0.5% FBS-containing EBM. Cells were briefly spun and then re-suspended in 0.5% FBS-media. Cells were counted and plated in 96-well, 1000 cells/well. Triplicate wells were used for each treatment. Data were collected at day 3, and then cells were fixed in 4% paraformaldehyde for 15 min before adding crystal violet. Cell-covered areas were quantified after taking pictures by Image J software.

[2] = system: ischemic hindlimb; experiment: Hindlimb ischemia model and blood flow; assay type: in vivo, mouse; settings: for blood perfusion ratio, of sham-treatment limbs: 3 weeks; for blood vessel density compared with H2O-treated control (CD31): 3 weeks post-ligation; for blood flow recovery (perfusion ratio): one week after surgery, 20% ManN oral or 1 mg/ml Kif ip every other day
Experimental: C57BL/6 male mice (6-8 weeks old) were subjected to unilateral hindlimb surgery under anesthesia with ketamine/xylazine cocktail. Briefly, the left femoral artery was separated from the vein and nerve, ligated proximally, and excised. The right hindlimb served as control. Blood flow was measured by using a laser Doppler perfusion imager (PeriScan PSI; Perimed). Ischemic and nonischemic limb perfusion was measured before and after surgery and 1, 2 and 3 weeks later. After surgery, mice were randomly allocated to different groups (8 mice for each group). 200 μl of 20% ManN was orally administrated every other day from 3rd day after surgery. 200 μl of 1 mg/ml Kif was administrated through ip injection every other day. H2O was used as a vehicle control. The final blood flow values were expressed as the ratio of ischemic to nonischemic hindlimb perfusion from the same animal. Quantification of blood vessel area was carried out as described.

[3] = system: A673; experiment: A673 proliferation assay; assay type: cell-based, human
Experimental: Proliferation assays with fibroblasts were done in low-glucose DMEM containing 1% FBS, with or without 10 ng/ml bFGF, or 100 ng/ml human EGF and the assay was ended at day 3. ARPE-19 cells were gently lifted with 0.025% trypsin and plated in RtEGM media (Clonetics) containing 2% FBS, L-glutamine, human bFGF and GA-1000. Once cells were attached to plates, serum-free RtEGM media was used to maintain the cultures. For proliferation assays, 1500 human RPE cells were plated into 96-well plates in low-glucose DMEM containing 1% FBS. A673, U87MG, Calu6 and AML12 cells were grown until confluent and were then harvested and re-suspended in appropriate assay media. For proliferation assays, cells were plated at the density of 1000-2000 cells/well in low-glucose DMEM containing 5% FBS or otherwise stated. Bovine pituitary cells (pituitary folliculostellate cells) were isolated as previously described. For proliferation assays with human epidermal keratinocytes, human DMVECs and human dermal fibroblast cells, 1000 cells/well were plated in low-glucose DMEM containing 1% FBS with or without various growth factors. The assay was ended at day 3 for bovine pituitary cells and at day 4 for all the other cell types. […] Four days later, tumor cell growth was measured by the MTS assay (Promega, Madison, WI), a colorimetric assay that measures metabolic activity of viable cells. […]

[4] = system: dermal microvascular endothelial cells (hDMVECs); experiment: hDMVEC proliferation assay; assay type: cell-based, human
Experimental: Proliferation assays with BCECs and BRECs were performed. Log-phase growing BCECs or BRECs (passage <10) were trypsinized, re-suspended and seeded in 96-well plates (no coating) in low-glucose DMEM supplemented with 10% bovine calf serum, 2 mM glutamine, and antibiotics (growth medium), at a density of 1200-1500 cells per well in 200 μl volume. All reagents were added at the indicated final concentrations. After 3-6 days, cells were incubated with AlamarBlue for 4 hrs. Fluorescence was measured at 530 nm excitation wavelength and 590 nm emission wavelength. The experiments were repeated at least three times. To create a hypoxic condition, cells were placed in a hypoxia incubator with a mixture of gas consisting of 1% 02, 5% CO2 and 94% Nz. On each 96-well plate, untreated and VEGF-treated (10/ng/ml) wells were included to monitor plate-to-plate variations. 20% methanol or 0.05% DMSO served as negative controls. 0.05% DMSO served as negative controls when Cas was tested in these cells. Human RMVECs and human adult DMVECs were split into Gelatin-coated 96 wells (2000 cells per well) in low glucose DMEM containing 10% FBS. 1200 cells/well was set up for proliferation assay in low glucose media containing FBS. Data was collected at day 4 or 5. HUVEC (p7-10) were grown on gelatin-coated plate until it reached 70-80% confluency.
Proliferation assays with fibroblasts were done in low-glucose DMEM containing 1% FBS, with or without 10 ng/ml bFGF, or 100 ng/ml human EGF and the assay was ended at day 3. ARPE-19 cells were gently lifted with 0.025% trypsin and plated in RtEGM media (Clonetics) containing 2% FBS, L-glutamine, human bFGF and GA-1000. Once cells were attached to plates, serum-free RtEGM media was used to maintain the cultures. For proliferation assays, 1500 human RPE cells were plated into 96-well plates in low-glucose DMEM containing 1% FBS. […] Four days later, tumor cell growth was measured by the MTS assay (Promega, Madison, WI), a colorimetric assay that measures metabolic activity of viable cells. […]

O=C1N[C@@H]2[C@@H](O)[C@@H](O)[C@H](O)[C@@H](CO)N2C1=O [Kif, Kifunensine, reference compound]
BCEC proliferation with N-glycosylation inhibitors ([1]; absence or presence of 5 ng/ml VEGF): stimulated in a dose-dependent fashion
blood perfusion ratio, of sham-treatment limbs [2]: ~50%
blood vessel density compared with H2O-treated control (CD31) [2]: 1.8 times
blood flow recovery (perfusion ratio) [2]: ~47%

N[C@H](C=O)[C@@H](O)[C@H](O)[C@H](O)CO [ManN, 2-Amino-2-deoxy-D-mannose]
growth of A673 [3]: did not promote growth
hDMVECs growth ([4]; ManN by itself): stimulated
additivity with VEGF on proliferation ([4]; hDMVECs): dose-dependent additivity with VEGF
toxicity ([4]; hDMVECs, at 5 mM): minimal toxicity
dose range with significant stimulatory effects [1]: 5 to 500 µM
additivity with VEGF in promoting BCEC proliferation ([1]; 5 ng/ml VEGF): additive with VEGF
additivity with bFGF in promoting BCEC proliferation ([1]; 20 ng/ml bFGF): Additive effects
fold increase in fluorescence units upon AlamarBlue addition ([1]; 50 uM ManN and 5 ng/ml VEGF, compared to VEGF alone): 2.5-3 fold
maximal fold increase in EC-covered surface ([1]; ManN at 50 uM alone, crystal violet, FIG. 1A): ~6.5 fold
dependence of VEGFR2 mass decrease and BCEC proliferation stimulation on VEGFR2 signaling ([1]; experiments with VEGFR2 inhibitor axitinib): not dependent on VEGFR2 signaling
additivity between ManN and VEGF in glucose-free media ([1]; glucose-free media): abolished
concentration with significant cytotoxicity ([1]; glucose-free media, even in the presence of VEGF): 4 µM
dose-response of effects on BCEC proliferation ([1]; with or without VEGF): bell-shaped dose-response curve, with inhibition at higher concentrations
blood perfusion ratio, of sham-treatment limbs [2]: ~50%
blood vessel density compared with H2O-treated control (CD31) [2]: 2.3 times
blood flow recovery (perfusion ratio) [2]: about 40%
